Experimental data: patent publication US20210002712A1, “PHOSPHATIDIC ACID SENSOR” (NATIONAL UNIVERSITY CORPORATION CHIBA UNIVERSITY, priority 2019, published 2021)

Experiments:
[1] = Liposome cosedimentation assay, other PA molecular species; assay type: binding; conditions: protein 2.5 μM; PA 150 μM
Method: (§1) FIG. 3. The purified SUMO-tagged-α-Syn-N protein (2.5 μM) was incubated with control (PC and Chol alone), 16:0/16:0-PA, 16:0/18:1-PA, 18:1/18:1-PA, or 18:0/18:0-PA liposomes (PA: 150 μM) and then separated by ultracentrifugation. SDS-PAGE (15%) was performed and separated proteins were stained with Coomassie Brilliant Blue. The position of α-Syn-N is indicated with an arrow head.
(§2) FIG. 4. The amounts of protein in the supernatant (S) and precipitant (P) were quantified by densitometry using ImageJ software. Binding activity was calculated as the percentage of the precipitate band intensity compared to the total band intensities. Values are presented as the mean±S.D. of three independent experiments. #P<0.05, ##P<0.01, ###P<0.005 versus the 18:1/18:1-PA-liposome, *P<0.05, ***P<0.005 versus the control liposome.
(§3) The following lipid mixtures were used: the control liposome: Chol (50 mol %) and 16:0/18:1-PC (50 mol %); and the PA liposome: Chol (50 mol %), 16:0/18:1-PC (35 mol %) and each PA species (15 mol %). The combined dried lipid mixture was resuspended in HEPES buffer. Then, the lipid mixture was vortexed for 1 min. Liposome formation was induced by sonication at 75° C. […] The supernatant and pellet were analyzed by SDS-PAGE followed by Coomassie Brilliant Blue and silver staining. Quantitative densitometry was performed using ImageJ software. […]

[2] = Lipid overlay assay, other lipids; assay type: binding; conditions: GST-tagged protein 20 nM; 100 pmol lipids
Description: (§4) FIG. 9. Equimolar amounts (100 pmol) of various lipids were spotted onto nitrocellulose membranes as indicated. Acyl chains of these glycerolipids and sphingolipids are C16:0 (Echelon Biosciences).
(§5) FIGS. 10 and 12. The blots were scanned and quantified using ImageJ software. The PA binding activity (spot intensity) of α-Syn-N was set to 100%. Values are presented as the mean±S.D. of three independent experiments. ***P<0.005 versus PA.
(§6) FIG. 27. Equimolar amounts (500 pmol) of 18:1/18:1-PA, 18:1/18:1-PC, 18:1/18:1-PE, 18:1/18:1-PG), 18:1/18:1-PS, 18:1/18:1-PI and 18:1/18:1-PI(4,5)P2 were spotted onto nitrocellulose membranes as indicated and incubated with purified GST-tagged-α-Syn-N(20 nM). Lipid-bound proteins were detected by an anti-GST antibody.
(§7) FIG. 28. The blots were scanned and quantified using ImageJ software. The PA binding activity (spot intensity) of α-Syn-N was set to 100%. Values are presented as the mean±S.D. of three independent experiments. ***P<0.005 versus 18:1/18:1-PA.
(§8) Three hundred picomoles of the indicated lipids were spotted onto a nitrocellulose membrane. Membrane Lipid Strip was also used. The membranes were subjected to blocking with 1% skim milk in Tris-buffered saline, pH 7.4, for 1 h at room temperature. […] Quantitative densitometry was performed using ImageJ software.

[3] = Liposome cosedimentation assay, PE and C1P liposomes; assay type: binding; conditions: protein 0.1 μM; liposomes 20 μM
Method: (§9) FIG. 7. The purified SUMO-tagged-α-Syn protein (0.1 μM) was incubated with 18:1/18:1-PA, 18:1/18:1-PS, 18:1/18:1-PI(4,5)P2, 18:1/18:1-PE and d18:1/18:1-C1P liposomes (20 μM) and then separated by ultracentrifugation. SDS-PAGE (15%) analysis was performed and separated proteins were detected with silver staining. The position of α-Syn-N is indicated with an arrow head.
(§10) FIG. 8. The amounts of protein in the precipitant were quantified by densitometry using ImageJ software. The PA binding activity of α-Syn-N was set to 100%. Values are presented as the mean±S.D. of three independent experiments. ***P<0.005 versus 18:1/18:1-PA liposome.
as §3, with “C. The purified SUMO-tagged α-Syn and its deletion mutants (2.5 μM) were dissolved in HEPES buffer and incubated with the control or PA-containing liposomes at room temperature for 1 h.” for “C.”

EGFP-PLD2 = assay: Colocalization with EGFP-PLD2 in COS-7 cells; assay type: cell-based
Method: FIGS. 21 and 22. […] Representative data from three independent experiments are shown. Scale bars, 20 μm.
(§11) COS-7 cells were maintained in Dulbecco's modified Eagle's medium supplemented with 10% fetal bovine serum, 100 units/ml penicillin, and 100 μg/ml streptomycin at 37° C. in an atmosphere containing 5% CO2. Cells were transiently transfected using PolyFect reagent as described by the manufacturer.
(§12) The cells were then fixed in 4% paraformaldehyde. The coverslips were mounted using Vectashield. […] Images were acquired using FV-10 ASW software.

[4] = Lipid overlay assay, PA spot; assay type: binding; conditions: GST-tagged protein 20 nM; 16:0/16:0-glycerolipids, 100 pmol
Description: as §4, §5, §6, §7, §8

EGFP-DGKβ = assay: Colocalization with EGFP-DGKβ in COS-7 cells; assay type: cell-based; conditions: 24 h after transfection
Method: (§13) FIGS. 13 to 16. […] After 24 h of transfection, the cells were fixed and imaged. Representative data from three independent experiments are shown. Scale bars, 20 μm.
FIG. 14. […] FIG. 15. EGFP-DGKβ-WT was coexpressed with DsRed monomer-α-Syn-N in COS-7 cells. […] Representative data from three independent experiments are shown. Scale bars, 20 μm.
(§14) FIG. 29. Either EGFP alone or EGFP-DGKβ was coexpressed with the DsRed monomer alone, DsRed monomer-Spo20p-PABD or DsRed monomer-PDE4A1-PABD in COS-7 cells as indicated. After 24 h of transfection, the cells were fixed and imaged. Representative data from three independent experiments are shown. Scale bars, 20 μm.
as §11, §12

PIP5K1A = assay: Colocalization with EGFP-PIP5K1A in COS-7 cells; assay type: cell-based
Method: as §14, with “23.” for “29.”, “EGFP-PIP5K1A” for “EGFP-DGKβ”, “with either” for “with”, “monomer α-Syn-N” for “monomer-Spo20p-PABD”, “monomer PLCδ1-PHD” for “monomer-PDE4A1-PABD”
FIG. 24. The localization of EGFP-PIP5K1A, DsRed monomer-α-Syn-N and DsRed monomer-PLCδ1-PHD was quantified using ImageJ software.
as §11, §12

[5] = Liposome cosedimentation assay, PS liposomes; assay type: binding; conditions: protein 0.1 μM; liposomes 20 μM
Method: as §9, §10
as §3, with “C. The purified SUMO-tagged α-Syn and its deletion mutants (2.5 μM) were dissolved in HEPES buffer and incubated with the control or PA-containing liposomes at room temperature for 1 h.” for “C.”

COS-7 cells = assay: Subcellular localization of the sensor without PA-generating enzyme in COS-7 cells; assay type: cell-based; conditions: absence of PA-generating enzyme
Method: as §13, §14, §11, §12

[6] = Liposome cosedimentation assay, PI(4,5)P2 liposomes; assay type: binding; conditions: protein 0.1 μM; liposomes 20 μM
Method: as §9, §10
as §3, with “C. The purified SUMO-tagged α-Syn and its deletion mutants (2.5 μM) were dissolved in HEPES buffer and incubated with the control or PA-containing liposomes at room temperature for 1 h.” for “C.”

[7] = Lipid overlay assay, PA versus LPA and C1P; assay type: binding; conditions: GST-tagged protein 20 nM; 300 pmol lipids
Method: FIG. 11. Equimolar amounts (300 pmol) of 18:1/18:1-PA, 18:1-LPA, and d18:1/18:1-C1P were spotted onto nitrocellulose membranes as indicated. The membranes were incubated with purified GST-tagged-α-Syn-N(20 nM). Lipid-bound proteins were detected by an anti-GST antibody.
as §5
Three hundred picomoles of the indicated lipids were spotted onto a nitrocellulose membrane. Membrane Lipid Strip was also used. The membranes were subjected to blocking with 1% skim milk in Tris-buffered saline, pH 7.4, for 1 h at room temperature. After blocking, 10 ml of 3% bovine serum albumin in Tris-buffered saline, pH 7.4, containing purified GST alone or GST-α-Syn-N (final concentration, 20 nM) was added to the membranes. The membranes were then incubated for 1 h at room temperature. Next, the membranes were incubated with an anti-GST antibody, followed by incubation with a peroxidase-conjugated goat anti-rabbit IgG antibody. Finally, lipid-bound proteins were visualized using an ECL Western blotting detection system. Quantitative densitometry was performed using ImageJ software.

Myr-AcGFP-DGKζ = assay: Colocalization with Myr-AcGFP-DGKζ in COS-7 cells; assay type: cell-based; conditions: trans Golgi network and plasma membrane
Method: FIG. 17. […] After 24 h of transfection, the cells were fixed and imaged. Representative data from three independent experiments are shown. Scale bars, 20 μm.
FIGS. 32 and 33. Either Myr-AcGFP-DGKζ alone or Myr-AcGFP-DGKζ-KD was coexpressed with the DsRed monomer alone or DsRed monomer-Spo20p-PABD in COS-7 cells as indicated. After 24 h of transfection, the cells were fixed and imaged. Representative data from three independent experiments are shown. Scale bars, 20 μm.
as §11, §12

EGFP-DGKγ [8] = assay: Colocalization with EGFP-DGKγ in PMA-stimulated COS-7 cells; assay type: cell-based; conditions: 1 μM PMA 30 min
Method: (§15) FIGS. 19 and 20. […] Representative data from three independent experiments are shown. Scale bars, 20 μm. FIG. 20.
as §11, §12

[9] = Liposome cosedimentation assay, 18:1/18:1-PA liposomes; assay type: binding
Method: FIG. 1. A schematic architecture of α-Syn and its deletion mutants. FIG. 2. The purified SUMO-tagged-α-Syn and its deletion mutant protein (2.5 μM) were incubated with 18:1/18:1-PA or 18:1/18:1-PS liposomes (PA or […]: 150 μM) and then separated by ultracentrifugation. SDS-PAGE (15%) was performed and separated proteins were stained with Coomassie Brilliant Blue. The positions of α-Syn and its mutants are indicated with arrow heads. The amounts of protein in the supernatant (S) and precipitant (P) were quantified by densitometry using ImageJ software. Binding activity was calculated as the percentage of the precipitate band intensity compared to the total band intensities. Values are presented as the mean±S.D. of four independent experiments. **P<0.01 versus the 18:1/18:1-PS liposome.
as §1, §2
FIG. 5. The purified SUMO-tagged-α-Syn protein (0.1 μM) was incubated with 18:1/18:1-PA liposomes of the indicated concentrations (0-20 μM) and then separated by ultracentrifugation. SDS-PAGE (15%) was performed and separated proteins were detected with silver staining. The position of α-Syn-N is indicated with an arrow head.
FIG. 6. The amounts of protein in the precipitant were quantified by densitometry using ImageJ software. Binding activity was calculated as the percentage of the precipitate band intensity compared to the total band intensities (Input). Values are presented as the mean±S.D. of four independent experiments. The Kd was determined using GraphPad Prism 8 (Dissociation-One phase exponential decay).
as §9, §10
The following lipid mixtures were used: the control liposome: Chol (50 mol %) and 16:0/18:1-PC (50 mol %); and the PA liposome: Chol (50 mol %), 16:0/18:1-PC (35 mol %) and each PA species (15 mol %). The combined dried lipid mixture was resuspended in HEPES buffer. Then, the lipid mixture was vortexed for 1 min. Liposome formation was induced by sonication at 75° C. The purified SUMO-tagged α-Syn and its deletion mutants (2.5 μM) were dissolved in HEPES buffer and incubated with the control or PA-containing liposomes at room temperature for 1 h. Then, the samples were centrifuged at 200,000 g at 4° C. for 1 h. The precipitant was dissolved in HEPES buffer. The supernatant and pellet were analyzed by SDS-PAGE followed by Coomassie Brilliant Blue and silver staining. Quantitative densitometry was performed using ImageJ software. Since the lipid forms a bilayer, half of the actual concentration was considered.

EGFP-DGKγ [10] = biological target: T1, EGFP-DGKγ (Homo sapiens, UniProt P49619); assay: PMA-induced translocation of EGFP-DGKγ in COS-7 cells; assay type: cell-based; conditions: 1 μM PMA for 30 min
T1 construct: expressed in transfected cells; host or cells: COS-7
T1 sequence (P49619 whole entry): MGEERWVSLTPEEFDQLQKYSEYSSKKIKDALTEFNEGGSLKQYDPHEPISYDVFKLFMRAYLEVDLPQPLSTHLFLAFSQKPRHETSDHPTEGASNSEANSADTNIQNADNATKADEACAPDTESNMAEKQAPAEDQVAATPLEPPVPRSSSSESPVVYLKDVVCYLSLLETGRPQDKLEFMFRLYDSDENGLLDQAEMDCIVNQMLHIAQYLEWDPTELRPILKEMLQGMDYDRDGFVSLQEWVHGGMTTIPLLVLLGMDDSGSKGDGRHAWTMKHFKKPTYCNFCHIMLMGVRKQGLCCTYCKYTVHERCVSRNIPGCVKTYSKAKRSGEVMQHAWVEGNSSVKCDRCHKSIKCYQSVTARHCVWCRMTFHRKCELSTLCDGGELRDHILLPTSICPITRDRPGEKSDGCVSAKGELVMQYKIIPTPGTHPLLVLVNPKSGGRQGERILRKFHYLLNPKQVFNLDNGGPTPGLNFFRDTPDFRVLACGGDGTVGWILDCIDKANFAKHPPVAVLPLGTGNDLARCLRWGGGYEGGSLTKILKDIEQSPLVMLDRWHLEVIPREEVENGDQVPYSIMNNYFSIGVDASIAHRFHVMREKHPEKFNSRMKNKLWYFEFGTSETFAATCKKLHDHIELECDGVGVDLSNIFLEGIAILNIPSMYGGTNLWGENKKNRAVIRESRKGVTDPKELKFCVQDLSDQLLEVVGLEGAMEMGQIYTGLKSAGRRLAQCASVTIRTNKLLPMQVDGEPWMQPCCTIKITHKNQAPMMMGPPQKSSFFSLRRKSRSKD
Method: as §15, §11, §12

PLD2 = PLD2 (Homo sapiens, UniProt O14939); conditions: COS-7 cells, 750 nM for 4 h
Chain of PLD2 (O14939 whole entry): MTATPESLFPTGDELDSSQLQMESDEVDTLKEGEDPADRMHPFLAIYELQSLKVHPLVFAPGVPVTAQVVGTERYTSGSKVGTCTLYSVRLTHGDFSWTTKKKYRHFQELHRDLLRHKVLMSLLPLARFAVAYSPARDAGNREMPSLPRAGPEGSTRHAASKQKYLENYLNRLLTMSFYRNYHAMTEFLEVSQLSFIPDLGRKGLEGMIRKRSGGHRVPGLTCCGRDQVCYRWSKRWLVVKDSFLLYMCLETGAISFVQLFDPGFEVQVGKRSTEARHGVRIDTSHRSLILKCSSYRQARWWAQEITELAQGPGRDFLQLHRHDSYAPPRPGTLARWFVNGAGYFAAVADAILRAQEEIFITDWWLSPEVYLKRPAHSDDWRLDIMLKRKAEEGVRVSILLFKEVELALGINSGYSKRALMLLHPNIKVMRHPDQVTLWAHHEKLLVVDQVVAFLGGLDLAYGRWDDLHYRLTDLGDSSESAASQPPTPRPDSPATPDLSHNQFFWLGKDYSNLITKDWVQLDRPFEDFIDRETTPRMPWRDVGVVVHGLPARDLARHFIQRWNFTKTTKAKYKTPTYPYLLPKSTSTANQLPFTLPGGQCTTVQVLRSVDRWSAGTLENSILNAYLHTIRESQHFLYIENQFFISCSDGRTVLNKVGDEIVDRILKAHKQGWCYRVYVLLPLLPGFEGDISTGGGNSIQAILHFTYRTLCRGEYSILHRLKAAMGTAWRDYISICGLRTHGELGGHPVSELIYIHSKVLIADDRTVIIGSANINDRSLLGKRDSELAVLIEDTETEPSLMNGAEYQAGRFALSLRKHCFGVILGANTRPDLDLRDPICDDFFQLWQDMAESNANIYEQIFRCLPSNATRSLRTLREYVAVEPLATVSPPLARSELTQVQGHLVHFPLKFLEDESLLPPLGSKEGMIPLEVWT
Method: EGFP-PLD2 was coexpressed with either the DsRed monomer alone or DsRed monomer α-Syn-N in COS-7 cells as indicated. After 24 h of transfection, the cells were incubated with 750 nM FIPI in growth medium for 4 h and then fixed and imaged. […] The localization of EGFP-PLD2-WT and DsRed monomer α-Syn-N was quantified using ImageJ software. COS-7 cells were grown and transfected as described in the above section. […] The cells were then fixed in 4% paraformaldehyde. The coverslips were mounted using Vectashield. Fluorescence images were acquired using an Olympus FV1000-D (IX81) confocal laser scanning microscope. GFP fluorescence was excited at 488 nm, and DsRed fluorescence was excited at 543 nm. Images were acquired using FV-10 ASW software.

Compound: α-Syn-N: N-terminal region of mouse α-synuclein (Met1-Lys60), SEQ ID NO: 2; used 6×His-SUMO-, GST- or DsRed monomer-tagged
- binding to 16:0/16:0- and 16:0/18:1-PA liposomes [1]: considerably interacted
- binding to other lipid spots [2]: only weak or no signals were detected
- binding to PE or C1P liposomes [3]: did not substantially interact
- colocalization with EGFP-PLD2 (EGFP-PLD2): clearly colocalized
- binding to PA spot [4]: most strongly bound
- colocalization with EGFP-DGKβ (EGFP-DGKβ): clearly colocalized
- colocalization with EGFP-PIP5K1A (PIP5K1A): did not codistribute
- binding to PS liposomes [5]: no signals were observed
- subcellular localization (COS-7 cells): broad distribution in the cytoplasm and the nucleus
- binding to PI(4,5)P2 liposomes [6]: only weak signals were detected
- binding of PA relative to LPA and C1P [7]: significantly stronger binding
- colocalization with Myr-AcGFP-DGKζ (Myr-AcGFP-DGKζ): markedly colocalized
- colocalization with EGFP-DGKγ at the plasma membrane (EGFP-DGKγ [8]): markedly colocalized
- PA-binding activity (18:1/18:1-PA liposomes) ([9]; 6×His-SUMO-tagged protein 2.5 μM, PA 150 μM): most strongly bound
- Kd ([9]; protein 0.1 μM, 18:1/18:1-PA liposomes 0-20 μM, read-out: dissociation constant (Kd) for PA (18:1/18:1-PA)): 6.6 µM
- binding to 18:1/18:1-PA liposomes compared with other acidic glycerolipids ([9]; protein 0.1 μM, liposomes 20 μM): most strongly bound

Compound: CCCCCCCCCCCCCC(=O)O[C@@H]1[C@@H](C)[C@@]2(O)[C@@H](C=C(CO)C[C@]3(O)C(=O)C(C)=C[C@@H]23)[C@@H]2C(C)(C)[C@]12OC(C)=O [PMA, phorbol 12-myristate 13-acetate]
- translocation of EGFP-DGKγ (EGFP-DGKγ [10]): led to the translocation of EGFP-DGKγ from the cytoplasm to the plasma membrane

Compound: O=C(NCCN1CCC(n2c(=O)[nH]c3ccccc32)CC1)c1cc2cc(F)ccc2[nH]1 [FIPI, 5-fluoro-2-indolyl deschlorohalopemide]
- effect on colocalization of EGFP-PLD2 and DsRed-α-Syn-N (PLD2): markedly attenuated their colocalization
